Measured values as given in ChEMBL document CHEMBL4270502, “From bench (laboratory) to bed (hospital/home): How to explore effective natural and synthetic PAK1-blockers/longevity-promoters for cancer therapy” (Eur J Med Chem, 2017).

Tests used:
A549 [1] = experiment: Growth inhibition of human A549 cells; assay type: functional, cell-based
Caenorhabditis elegans [2] = experiment: Increase in lifespan of Caenorhabditis elegans N2 var. Bristol at 40 uM; assay type: functional
Caenorhabditis elegans [3] = experiment: Increase in lifespan of Caenorhabditis elegans age-1(hx546) at 40 uM; assay type: functional
[4] = target: T1, Serine/threonine-protein kinase PAK 1 (Homo sapiens, UniProt Q13153); experiment: Inhibition of HA-PAK1 (unknown origin) using histone H4 substrate and [gamma-32P] ATP by autoradiography
[5] = target: T2, Serine/threonine-protein kinase PAK 1 (Mus musculus, UniProt O88643); experiment: Inhibition of PAK1 in v-Ha-RAS-transformed mouse NIH/3T3 cells incubated for 1 hr by immunoblot analysis
[6] = target: Mitogen-activated protein kinase kinase kinase 11 (Homo sapiens, UniProt Q16584); experiment: Inhibition of flag-tagged MLK3 (unknown origin) expressed in human HeLa cells assessed as reduction in enzyme autophosphorylation incubated for 20 mins by immunoprecipitatation; assay type: cell-based
A549 [7] = experiment: Growth inhibition of RAS-transformed human A549 cells; assay type: functional, cell-based
Caenorhabditis elegans [8] = experiment: Increase in lifespan of Caenorhabditis elegans; assay type: functional
[9] = target: T1, Serine/threonine-protein kinase PAK 1; experiment: Inhibition of PAK1 in human MCF7 cells transfected with constitutively active NH2-terminally truncated C1199 Tiam1 construct; assay type: cell-based
[10] = target: Serine/threonine-protein kinase PAK 3 (Homo sapiens, UniProt O75914); experiment: Inhibition of GST-tagged PAK3 (unknown origin) expressed in Escherichia coli using peptide PC9 substrate
Protein kinase C (PKC) = experiment: Inhibition of rat brain PKC using […] derived peptide substrate
[11] = target: T1, Serine/threonine-protein kinase PAK 1; experiment: Inhibition of recombinant human PAK1 by ADP-Glo kinase assay
[12] = target: T1, Serine/threonine-protein kinase PAK 1; experiment: Inhibition of PAK1 (unknown origin)
[13] = target: T1, Serine/threonine-protein kinase PAK 1; experiment: Inhibition of PAK1 (unknown origin) by cell culture based assay
[14] = Growth stimulation of HFDPC assessed as increase in cell viability incubated for 3 days by MTT assay; assay type: functional, Homo sapiens
[15] = Cytotoxicity in human M8 cells by MTT assay; assay type: functional, cell-based
[16] = Potency index, ratio of IC50 for caffeic acid to IC50 for test compound for cytotoxicity in human M8 cells by MTT assay; assay type: functional
Caenorhabditis elegans [17] = experiment: Increase in lifespan of Caenorhabditis elegans N2 at 100 uM; assay type: functional
Mus musculus = experiment: Increase in lifespan of C57BL/6J mouse at 2 mg/kg/day dosed in drinking water; assay type: functional; details: feed or water
[18] = Stability assessed as shelf life at 4 degC; assay type: physicochemical
[19] = target: T2, Serine/threonine-protein kinase PAK 1; experiment: Inhibition of PAK1 in v-Ha-RAS-transformed mouse NIH/3T3 cells incubated for 48 hrs by immunoblot analysis
[20] = target: T1, Serine/threonine-protein kinase PAK 1; experiment: Inhibition of PAK1 in estrogen-stimulated human MCF7 cells incubated for 48 hrs by immunoblot analysis; assay type: cell-based
PC-3 = experiment: Antitumor activity against human PC3 cells wenografted in mouse assessed as inhibition of tumor growth at 3 mg/kg/day; assay type: functional; details: read-out: TGI
[21] = target: T1, Serine/threonine-protein kinase PAK 1; experiment: Inhibition of PAK1 in human A549 cells; assay type: cell-based
Caenorhabditis elegans [22] = experiment: Increase in lifespan of Caenorhabditis elegans N2 CGCb under 2 mM H2O2-induced oxidative stress conditions at 1 to 50 mg/L; assay type: functional

T1 sequence (Q13153 whole entry): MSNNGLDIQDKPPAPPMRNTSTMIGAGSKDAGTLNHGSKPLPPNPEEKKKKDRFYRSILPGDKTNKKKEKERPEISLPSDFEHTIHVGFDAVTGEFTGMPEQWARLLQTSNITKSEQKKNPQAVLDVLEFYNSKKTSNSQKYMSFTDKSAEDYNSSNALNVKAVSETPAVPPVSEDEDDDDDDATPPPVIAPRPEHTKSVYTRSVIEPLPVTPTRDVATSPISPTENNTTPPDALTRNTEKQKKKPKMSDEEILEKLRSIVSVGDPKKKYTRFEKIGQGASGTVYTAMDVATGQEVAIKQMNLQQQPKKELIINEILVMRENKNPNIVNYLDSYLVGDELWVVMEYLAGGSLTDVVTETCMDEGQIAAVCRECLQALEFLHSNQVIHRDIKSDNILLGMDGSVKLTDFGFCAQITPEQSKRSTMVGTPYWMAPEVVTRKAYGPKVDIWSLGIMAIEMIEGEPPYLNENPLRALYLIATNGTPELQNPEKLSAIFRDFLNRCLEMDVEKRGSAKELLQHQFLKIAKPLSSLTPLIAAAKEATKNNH
T2 sequence (O88643 whole entry): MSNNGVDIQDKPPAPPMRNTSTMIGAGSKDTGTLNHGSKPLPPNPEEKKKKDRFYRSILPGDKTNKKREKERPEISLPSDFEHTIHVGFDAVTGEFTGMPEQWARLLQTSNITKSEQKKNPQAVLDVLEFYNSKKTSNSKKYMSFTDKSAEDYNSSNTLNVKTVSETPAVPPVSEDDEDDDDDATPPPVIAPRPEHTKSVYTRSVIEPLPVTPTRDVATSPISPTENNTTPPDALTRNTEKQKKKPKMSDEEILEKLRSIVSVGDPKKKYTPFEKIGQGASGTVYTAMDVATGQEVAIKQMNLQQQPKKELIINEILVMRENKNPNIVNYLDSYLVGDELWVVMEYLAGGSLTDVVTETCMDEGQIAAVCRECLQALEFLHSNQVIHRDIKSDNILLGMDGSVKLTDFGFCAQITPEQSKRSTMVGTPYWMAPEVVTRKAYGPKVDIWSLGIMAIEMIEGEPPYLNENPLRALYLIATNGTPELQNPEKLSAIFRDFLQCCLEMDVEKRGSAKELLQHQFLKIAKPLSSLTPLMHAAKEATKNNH
Chain of Mitogen-activated protein kinase kinase kinase 11 (Q16584 whole entry): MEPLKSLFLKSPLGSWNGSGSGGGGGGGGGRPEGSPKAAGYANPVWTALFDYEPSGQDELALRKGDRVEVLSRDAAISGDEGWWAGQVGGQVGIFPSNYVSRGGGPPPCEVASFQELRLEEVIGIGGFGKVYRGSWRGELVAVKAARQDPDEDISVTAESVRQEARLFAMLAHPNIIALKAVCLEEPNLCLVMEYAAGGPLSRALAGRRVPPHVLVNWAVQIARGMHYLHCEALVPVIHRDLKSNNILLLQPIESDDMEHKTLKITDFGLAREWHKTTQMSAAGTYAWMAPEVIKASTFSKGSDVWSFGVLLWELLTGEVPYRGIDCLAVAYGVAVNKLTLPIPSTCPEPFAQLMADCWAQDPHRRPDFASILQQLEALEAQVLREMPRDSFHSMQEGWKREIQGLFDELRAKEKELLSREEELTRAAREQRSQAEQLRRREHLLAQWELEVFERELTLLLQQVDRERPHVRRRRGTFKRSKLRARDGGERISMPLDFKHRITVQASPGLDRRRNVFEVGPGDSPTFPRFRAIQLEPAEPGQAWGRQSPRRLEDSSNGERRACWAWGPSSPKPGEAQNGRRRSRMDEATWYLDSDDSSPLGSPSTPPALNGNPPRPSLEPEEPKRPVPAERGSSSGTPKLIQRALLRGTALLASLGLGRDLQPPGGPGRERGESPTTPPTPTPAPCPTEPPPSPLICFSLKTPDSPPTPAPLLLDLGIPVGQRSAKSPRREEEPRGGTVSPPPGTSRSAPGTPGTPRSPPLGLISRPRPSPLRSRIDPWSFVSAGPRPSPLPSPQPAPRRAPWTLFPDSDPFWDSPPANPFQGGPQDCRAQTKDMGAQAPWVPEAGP
Chain of Serine/threonine-protein kinase PAK 3 (O75914 whole entry): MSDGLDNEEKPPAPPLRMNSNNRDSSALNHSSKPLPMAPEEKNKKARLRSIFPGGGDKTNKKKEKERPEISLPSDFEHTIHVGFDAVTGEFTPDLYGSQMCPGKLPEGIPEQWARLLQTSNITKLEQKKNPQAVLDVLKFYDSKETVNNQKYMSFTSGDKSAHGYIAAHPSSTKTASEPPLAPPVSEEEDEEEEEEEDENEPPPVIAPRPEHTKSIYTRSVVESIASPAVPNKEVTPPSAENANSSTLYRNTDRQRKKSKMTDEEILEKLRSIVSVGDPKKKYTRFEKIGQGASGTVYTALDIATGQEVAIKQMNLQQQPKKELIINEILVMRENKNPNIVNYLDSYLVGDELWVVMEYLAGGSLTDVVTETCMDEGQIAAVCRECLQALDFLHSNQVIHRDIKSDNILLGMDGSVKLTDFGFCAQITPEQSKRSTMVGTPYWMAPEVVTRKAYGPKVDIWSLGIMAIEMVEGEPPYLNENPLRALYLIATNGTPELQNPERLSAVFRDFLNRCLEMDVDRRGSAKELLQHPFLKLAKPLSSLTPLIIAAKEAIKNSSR

CC1=C(/C=C/C(C)=C/C=C/C(C)=C/C=C/C=C(C)/C=C/C=C(C)/C=C/C2=C(C)C(=O)C(O)CC2(C)C)C(C)(C)CC(O)C1=O (stereo not given)
IC50 (A549 [1]): 40 µM | Activity (Caenorhabditis elegans [2]): 16 - 30% | Activity (Caenorhabditis elegans [3]): 16 - 30%

CCCCCC(=O)c1c(O)cc(OC)c(Cl)c1O
IC50 (A549 [1]): 2 to 3 µM | IC50 [4]: 2.5 µM

CCSCc1ccc2c(c1)c1c3c(c4c5cc(CSCC)ccc5n5c4c1n2C1C[C@](O)(C(=O)OC)[C@]5(C)O1)CNC3=O
IC50 (A549 [1]): 1 µM | IC50 [5]: 1 µM | IC50 [6]: 0.02 µM | IC50 (A549 [7]): 1 µM

Cc1ccc(-c2nn(C(C)(C)C)c3ncnc(N)c23)cc1
IC50 (A549 [1]): 0.01 µM

CC(C)NC(=O)N1CC[C@H](NC2=Nc3cc(F)ccc3N(CC(F)F)c3ccc(Cl)cc32)C1
IC50 (A549 [1]): 0.25 µM

CNc1ncc2cc(-c3ccc(-c4cccc(C)n4)cc3Cl)c(=O)n(C[C@H]3OC[C@H](N)CO3)c2n1
IC50 (A549 [1]): > 1 µM

CCS(=O)(=O)c1cc(Nc2ncc(F)c(N(Cc3ccccc3C#N)c3cc(CO)ccc3C)n2)ccc1N1CCN(C)CC1
IC50 (A549 [1]): 0.06 µM

COc1ccccc1-n1cc(COC(=O)C2CCn3c(C(=O)c4ccccc4)ccc32)nn1 (stereo not given)
ILS (Caenorhabditis elegans [8]): 30%

Cc1cc(C)cc(NC(=N)Nc2ccccc2C(F)(F)F)c1
IC50 [9]: 4 µM

CN[C@@H]1C[C@H]2O[C@@](C)([C@@H]1OC)n1c3ccc(O)cc3c3c4c(c5c6cc(O)ccc6n2c5c31)C(=O)NC4
IC50 [10]: 0.001 µM | IC50 (Protein kinase C (PKC)): 0.001 µM

COc1ccccc1-n1cc(COC(=O)/C=C/c2ccc(O)c(O)c2)nn1
IC50 (A549 [1]): 0.225 µM

CC(=O)CCC=C(C)CCC=C(C)CCC=C(C)CCC=C(C)C
IC50 (A549 [1]): 10 µM

CC(C)(C)c1cc(/C=C(\C#N)C(=S)NCCCCCCN)cc(C(C)(C)C)c1O
IC50 (A549 [1]): 0.005 µM

CO[C@@H]1[C@@H](O)[C@H](O[C@@H]2[C@@H](O)[C@H](O[C@H]3[C@H](O)[C@@H](O[C@@H]4OC[C@@H](O)[C@H](O)[C@H]4O)[C@H](O[C@H]4[C@H](O[C@H]5CC[C@]6(C)[C@@H]7CCC89C(=O)O[C@@](C)(CCCC(C)C)[C@H]8[C@@H](OC(C)=O)C[C@@]9(C)C7=CC[C@H]6C5(C)C)OC[C@@H](OS(=O)(=O)O)[C@@H]4O)O[C@@H]3C)OC[C@H]2O)O[C@H](CO)[C@H]1O (stereo not given in full)
IC50 (A549 [1]): 0.6 to 1.5 µM | IC50 [11]: 1 µM | IC50 (A549 [7]): 1 µM

COc1ccccc1-n1cc(COC(=O)[C@]23CC[C@@H](C)[C@H](C)[C@H]2C2=CC[C@@H]4[C@@]5(C)CC[C@H](O)C(C)(C)[C@@H]5CC[C@@]4(C)[C@]2(C)CC3)nn1
IC50 (A549 [1]): 0.1 µM

Oc1ccc2ccccc2c1SSc1c(O)ccc2ccccc12
IC50 (A549 [1]): 30 µM | IC50 [12]: 1 µM

CC(C)=CCc1cc(/C=C/C(=O)O)cc(CC=C(C)C)c1O [ARTEPILLIN]
IC50 [13]: 25 µM | ED [14]: 20 µM | IC50 (A549 [1]): 25 µM

O=C(/C=C/c1ccc(O)c(O)c1)OCCc1ccccc1 [CAFFEIC ACID PHENETHYL ESTER]
IC50 [15]: 10 µM | Ratio IC50 [16]: 10 | Activity (Caenorhabditis elegans [17]): 15% | IC50 (A549 [1]): 10 µM

O=C(O)/C=C/c1ccc(O)c(O)c1 [CAFFEIC ACID]
IC50 [15]: 100 µM

CC(C)(O)/C=C/C(=O)[C@](C)(O)[C@H]1[C@H](O)C[C@@]2(C)[C@@H]3CC=C4[C@@H](C=C(O)C(=O)C4(C)C)[C@]3(C)C(=O)C[C@]12C [CUCURBITACIN I]
IC50 (A549 [1]): 0.14 µM

COc1cc(/C=C/C(=O)CC(=O)/C=C/c2ccc(O)c(OC)c2)ccc1O [CURCUMIN]
IC50 (A549 [1]): 23 µM

C[C@H](CCCCC(=O)O)O[C@@H]1O[C@@H](C)[C@H](O)C[C@H]1O [DAUMONE]
IC50 (A549 [1]): 0.02 µM | ILS at 2 mg/kg/day (Mus musculus): 50%

COc1ccc2[nH]cc(CCNC(C)=O)c2c1 [MELATONIN]
IC50 (A549 [1]): 1300 µM

CC(C)[C@]12O[C@H]1[C@@H]1O[C@]13[C@]1(O[C@H]1C[C@H]1C4=C(CC[C@@]13C)C(=O)OC4)[C@@H]2OCOP(=O)([O-])[O-].[Na+].[Na+] [MINNELIDE]
Stability [18]: 2 yr

COc1c(C)c2c(c(O)c1C/C=C(\C)CCC(=O)OCCN1CCOCC1)C(=O)OC2 [MYCOPHENOLATE MOFETIL]
IC50 (A549 [1]): 0.05 to 0.5 µM

CC(C)=CCC/C(C)=C/Cc1c(O)cc2c(c1O)C(=O)C[C@@H](c1ccc(O)c(O)c1)O2 [NYMPHAEOL A]
IC50 (A549 [1]): 4 to 7 µM

CC(C)=CCC/C(C)=C/Cc1c([C@@H]2CC(=O)c3c(O)cc(O)cc3O2)ccc(O)c1O [NYMPHAEOL B]
IC50 (A549 [1]): 4 to 7 µM

CC(C)=CCC/C(C)=C/Cc1c([C@@H]2CC(=O)c3c(cc(O)c(CC=C(C)C)c3O)O2)ccc(O)c1O [NYMPHAEOL C]
IC50 (A549 [1]): 4 to 7 µM

Oc1ccc(/C=C/c2cc(O)cc(O)c2)cc1 [RESVERATROL]
IC50 (A549 [1]): 30 µM | IC50 [11]: 15 µM

C/C=C1\NC(=O)[C@H]2CSSCC/C=C/[C@H](CC(=O)N[C@H](C(C)C)C(=O)N2)OC(=O)[C@H](C(C)C)NC1=O [ROMIDEPSIN]
IC50 [19]: < 0.001 µM | IC50 [20]: < 0.001 µM

COCCn1c2c([n+](Cc3cnccn3)c1C)C(=O)c1ccccc1C2=O [SEPANTRONIUM BROMIDE]
IC50 (A549 [1]): 0.0134 µM | inhibition in vivo at 3 mg/kg/day (PC-3): > 50% | IC50 [21]: 0.5 µM

CC(C)[C@]12O[C@H]1[C@@H]1O[C@]13[C@]1(O[C@H]1C[C@H]1C4=C(CC[C@@]13C)C(=O)OC4)[C@@H]2O [TRIPTOLIDE]
IC50 (A549 [1]): 0.03 µM | ILS (Caenorhabditis elegans [8]): 20% | ILS (Caenorhabditis elegans [22]): 20%

CC(C)(C)c1cc(/C=C(\C#N)C(N)=S)cc(C(C)(C)C)c1O [TYRPHOSTIN AG 879]
IC50 (A549 [1]): 0.005 µM
